“Also recorded” adds a separate entry of the source. Ends that are not written are not given here. Peptide text beside a SMILES is read from it.

The results in this text go back to paper PMC8807614 (Scientific Reports, 2022).

The nature of data set [1]: Plasma peptide concentrations 4 h after last dosing in DIO mice. The data set is classed as in vivo, male C57BL/6 J mice. To be noted: treatment day 6, 1,250 nmol/kg SC BID. The procedure: (a) Body weight. (b) 24 h food intake. (c) total food intake during treatment phase. (d) total food intake during wash-out phase. (e) Plasma peptide concentrations as measured 4 h after last dosing (treatment day 6). Peptides were administered (SC, BID) at a dose of 1250 nmol/kg (n = 7–8 per group). **p < 0.01, ***p < 0.001 compared to vehicle.
Figure 4 Lipidated metabolites of GUB03385 robustly reduce body weight and food intake in DIO mice. Effect of subchronic treatment (days 0–6) with GUB08248, GUB08251, GUB10194 and GUB10195 followed by 7-day wash-out period (days 7–13, marked in grey). In vivo efficacy was compared to semaglutide (10 nmol/kg, SC, QD, n = 8). (a) Body weight. (b) 24 h food intake. (c) Total food intake during treatment phase. (d) Total food intake during wash-out phase. (e) Plasma peptide concentrations as measured 4 h after last dosing (treatment day 6).
Compounds were freshly prepared in vehicle (PBS with 0.1% BSA, pH 4) just prior to dosing. Semaglutide was purchased from Hoersholm Pharmacy (Hoersholm, Denmark). All animals were single housed two weeks prior to treatment and throughout the remaining of the study period. […] Body weight and food intake (24 h) were measured daily during the treatment period and one week after treatment. […]

A further data set concerns the target human NPFF2R (Homo sapiens, UniProt Q9Y5X5). The data set is described as follows: NPFF2R functional activity assay (cAMP, HTRF). The data set is classed as cell-based. As to conditions: CHO-K1 cells stably expressing human NPFF2R, 1500 cells/well; HTRF cAMP (CisBio); 3 µM forskolin (~90% activity level); 30 min; DPBS, 0.5 mM IBMX, 0.05% casein; 11 concentrations. The procedure: Figure 3 GPR10 and NPFF2R profiling of in vivo metabolites of GUB03385. […] (b) cAMP measurements in human NPFF2R CHO-K cells (HTRF technology, CisBio) at a fixed concentration of 3 µM forskolin after 30 min. incubation at room temperature with metabolites and the native peptide NPSF. Representative curves of three determinations.
The Homogenous Time Resolved Fluorescence (HTRF) technology optimized for Gq coupled receptors has thoroughly been described in the CisBio IP1 kit manual (#62IPAPEC) and in the cAMP assay kit manual for Gi coupled receptors (#62AM9PEC). Briefly, this technic is based on a competitive immunoassay using cryptate-labelled anti-cAMP or anti-IP1 antibodies and d2-labeled cAMP or IP1. In the absence of cellular cAMP or IP1, the anti-cryptate conjugate may get into proximity to the d2 conjugate and energy (FRET) can be transferred from cryptate to d2. Chem-1 cells stably expressing the human prolactin releasing peptide receptor (GPR10, Eurofins, # HTS057C) and irradiated CHO-K1 cells stably expressing the human NPFF2R (PerkinElmer, #ES-490-CF) were applied as cells in suspension, brought to life from frozen cell stocks immediately before assay performance. 384-Well (Corning, #4513) assay formats with a total assay volume of 20 µl were applied. GPR10 cells (10.000 cells/well) were incubated with agonist peptides and the NPFF2R cells (1500 cells/well) were incubated with agonist peptides and forskolin (~ 90% activity level) for 30 min at 37 °C using IP1 kit stimulation buffer and DPBS (Sigma, #D8537) containing 0.5 mM IBMX (Sigma, # I5879), receptively. Both stimulation buffers were supplemented with 0.05% casein (Sigma, # C4765-10 ml). After addition of HTRF® detection reagents and incubation with shaking (2400 rpm) for one hour at room temperature signals at 620 and 665 nm (raw counts: ratio of 665/620) were detected at a ClarioStar plate reader (BMG Labtech, Ortenberg, Germany). Concentration–response evaluation of compounds was performed with 11 concentrations of agonist peptides (covering 3 decades) and EC50 values were calculated by nonlinear regression using sigmoid concentration–response with variable slope. Data were analysed using GraphPad v9.1 software (GraphPad, La Jolla, CA).
A general note: In TR-FRET formats the signal depends on donor and acceptor labels being close together.

The target of data set [2] is T1, human prolactin releasing peptide receptor (GPR10) (Homo sapiens, UniProt P49683).
T1 sequence (P49683 1-370): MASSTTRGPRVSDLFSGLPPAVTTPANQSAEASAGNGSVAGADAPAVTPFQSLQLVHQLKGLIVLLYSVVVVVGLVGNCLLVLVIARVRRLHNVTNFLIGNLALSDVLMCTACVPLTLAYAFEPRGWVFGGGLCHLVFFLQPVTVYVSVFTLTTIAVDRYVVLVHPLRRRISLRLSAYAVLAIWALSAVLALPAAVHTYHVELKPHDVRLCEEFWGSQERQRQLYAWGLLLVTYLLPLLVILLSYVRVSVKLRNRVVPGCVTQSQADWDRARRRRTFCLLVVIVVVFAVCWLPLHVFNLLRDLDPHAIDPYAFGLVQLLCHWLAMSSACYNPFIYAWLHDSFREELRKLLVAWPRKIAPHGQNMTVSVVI
The experiment in a line: GPR10 functional activity assay (IP1, HTRF). As to conditions: Chem-1 cells stably expressing human GPR10, 10.000 cells/well; HTRF IP1 (CisBio); 30 min at 37 °C; IP1 stimulation buffer with 0.05% casein; 11 concentrations. In kind it is cell-based.

A further data set relates to DIO mice. The data set is described as follows: In vivo efficacy of lipidated PrRP31 analogues in DIO mice (body weight, food intake). More on the design: species or system male C57BL/6 J mice. The procedure:
For all in vivo studies, male C57BL/6 J mice (5 weeks old, n = 7–8) were purchased from Janvier Labs (Le Genest Saint Isle, France). Individual animals were identified by implantable subcutaneous microchips (PetID Microchip, E-vet, Haderslev, Denmark). Mice were housed in a controlled environment (12 h light/dark cycle, lights on at 3 AM, 21 ± 2 °C, humidity 50 ± 10%) and had ad libitum access to tap water and regular chow (Altromin 1324, Brogaarden, Hørsholm, Denmark) or high-fat diet (60% fat, D12492 Research diet) for up to 47 weeks prior to the initiation of the study. All animal experiments were conducted in accordance to internationally accepted principles for the care and use of laboratory animals. All experiments were approved by The Animal Experimentation Council, Danish Veterinary and Food Administration (license #2013-15-2934-00784) and the Gubra ethics committee. All experiments complied with the ARRIVE guidelines.
Compounds were freshly prepared in vehicle (PBS with 0.1% BSA, pH 4) just prior to dosing. Semaglutide was purchased from Hoersholm Pharmacy (Hoersholm, Denmark). All animals were single housed two weeks prior to treatment and throughout the remaining of the study period. Mice were randomized to treatment according to body weight (n = 7–8 per group) and dosed subcutaneously (SC, 5 ml/kg) for a total of 7 days with vehicle (BID), semaglutide (10 nmol/kg, QD) or peptide analogues (1,250 nmol/kg, BID). All compounds were administered during the light phase. Body weight and food intake (24 h) were measured daily during the treatment period and one week after treatment. In vivo data were subjected to relevant statistical analyses using GraphPad v9.1 software (GraphPad, La Jolla, CA). Statistical evaluation was carried out using Dunnett’s test one-factor linear model (endpoint body weight, food intake, cumulative food intake). A p-value less than 0.05 was considered statistically significant.

The nature of data set [3]: plasma of DIO mice 4 h after last dosing on treatment day 6 (SC, BID). As to conditions: DIO mice (male C57BL/6 J), up to 4 h after last dosing on treatment day 6.
Data set [4] in a line: plasma from cardiac blood samples of DIO mice dosed with GUB03385 (SC). To be noted: DIO mice (male C57BL/6 J), up to 120 min.

Chain of human NPFF2R (Q9Y5X5 whole entry): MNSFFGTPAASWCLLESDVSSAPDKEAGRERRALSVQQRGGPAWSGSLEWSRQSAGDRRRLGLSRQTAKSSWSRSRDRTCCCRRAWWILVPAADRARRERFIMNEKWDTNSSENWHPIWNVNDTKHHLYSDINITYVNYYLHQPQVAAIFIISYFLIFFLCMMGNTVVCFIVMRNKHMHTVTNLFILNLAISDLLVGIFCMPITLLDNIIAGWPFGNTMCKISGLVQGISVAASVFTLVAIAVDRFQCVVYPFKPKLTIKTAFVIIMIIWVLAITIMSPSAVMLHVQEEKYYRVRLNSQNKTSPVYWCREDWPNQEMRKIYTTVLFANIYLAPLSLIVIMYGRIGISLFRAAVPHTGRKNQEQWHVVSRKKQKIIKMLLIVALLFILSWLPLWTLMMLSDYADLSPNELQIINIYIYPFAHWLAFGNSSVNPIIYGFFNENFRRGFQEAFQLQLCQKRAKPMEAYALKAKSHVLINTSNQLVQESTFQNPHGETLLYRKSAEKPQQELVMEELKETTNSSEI

As for `CCCCCCCCCCCCCCCC(=O)N[C@@H](CCC(=O)NCCCC[C@H](NC(=O)[C@@H](NC(=O)[C@H](CCC(=O)O)NC(=O)[C@H](CCSC)NC(=O)[C@H](CO)NC(=O)[C@H](Cc1c[nH]cn1)NC(=O)[C@H](CCCNC(=N)N)NC(=O)[C@H](Cc1c[nH]cn1)NC(=O)[C@@H](NC(=O)[C@H](CCCNC(=N)N)NC(=O)[C@@H](N)CO)[C@@H](C)O)[C@@H](C)CC)C(=O)N[C@H](C(=O)N1CCC[C@H]1C(=O)N[C@@H](CC(=O)O)C(=O)N[C@H](C(=O)N[C@@H](CC(N)=O)C(=O)N1CCC[C@H]1C(=O)N[C@@H](C)C(=O)N[C@@H](Cc1c[nH]c2ccccc12)C(=O)N[C@@H](Cc1ccc(O)cc1)C(=O)N[C@@H](C)C(=O)N[C@@H](CO)C(=O)N[C@@H](CCCNC(=N)N)C(=O)NCC(=O)N[C@H](C(=O)N[C@@H](CCCNC(=N)N)C(=O)N1CCC[C@H]1C(=O)N[C@H](C(=O)NCC(=O)N[C@@H](CCCNC(=N)N)C(=O)N[C@@H](Cc1ccccc1)C(N)=O)C(C)C)[C@@H](C)CC)[C@@H](C)CC)[C@@H](C)O)C(=O)O` [GUB02647] (HELM PEPTIDE1{S.R.T.H.R.H.S.M.E.I.K.T.P.D.I.N.P.A.W.Y.A.S.R.G.I.R.P.V.G.R.F.[am]}|PEPTIDE2{[CCCCCCCCCCCCCCCC(=O)[*:2]].[gGlu]}$PEPTIDE1,PEPTIDE2,11:R3-2:R2$$$V2.0), the “plasma exposure 4 h after last dosing” value in data set [1] is given as “not detected in plasma; also recorded: undetectable in plasma”. Further, the EC50 (commonly the concentration at which the effect is half-maximal) is 147 nM on human NPFF2R and 0.3 nM in data set [2]. Moreover, the “effect on food intake” value with DIO mice (1,250 nmol/kg SC BID days 0-6, wash-out days 7-13, 24 h food intake measured daily) is on record as “significantly suppressed food intake during the treatment period, but not in the wash-out phase”. Also, in the data set on DIO mice (1,250 nmol/kg SC BID for 7 days (days 0-6), after last dosing, n = 7-8 per group), the “body weight loss, day 7” value worked out at 11.8 ± 1.0%. Besides, in the data set with DIO mice (1,250 nmol/kg SC BID for 7 days, then 7-day wash-out, n = 7-8 per group), the “body weight loss, day 13” value came to 8.1 ± 1.0%. Further, the “weight loss (as summarised in discussion)” value with DIO mice (subchronic SC treatment with 1,250 nmol/kg BID, time point not stated) came out at 8%.

As for `CC(C)C[C@H](NC(=O)[C@H](Cc1ccccc1)NC(=O)[C@H](C)NC(=O)[C@H](CCC(N)=O)NC(=O)[C@@H](N)CO)C(=O)N[C@@H](Cc1ccccc1)C(=O)N[C@@H](CCC(N)=O)C(=O)N1CCC[C@H]1C(=O)N[C@@H](CCC(N)=O)C(=O)N[C@@H](CCCNC(=N)N)C(=O)N[C@@H](Cc1ccccc1)C(N)=O` [NPSF, neuropeptide SF], the 50% effective concentration (EC50) at human NPFF2R is 5.6 nM; in data set [2] it was more than 5000 nM.

`CC[C@H](C)[C@H](NC(=O)CNC(=O)[C@H](CCCNC(=N)N)NC(=O)[C@H](CO)NC(=O)[C@H](C)NC(=O)[C@H](Cc1ccc(O)cc1)NC(=O)[C@H](Cc1c[nH]c2ccccc12)NC(=O)[C@H](C)NC(=O)[C@@H]1CCCN1C(=O)[C@H](CC(N)=O)NC(=O)[C@@H](NC(=O)[C@H](CC(=O)O)NC(=O)[C@@H]1CCCN1C(=O)[C@@H](NC(=O)[C@H](CCCNC(=N)N)NC(=O)[C@@H](NC(=O)[C@H](CCC(=O)O)NC(=O)[C@H](CCSC)NC(=O)[C@H](CO)NC(=O)[C@H](Cc1c[nH]cn1)NC(=O)[C@H](CCCNC(=N)N)NC(=O)[C@H](Cc1c[nH]cn1)NC(=O)[C@@H](NC(=O)[C@H](CCCNC(=N)N)NC(=O)[C@@H](N)CO)[C@@H](C)O)[C@@H](C)CC)[C@@H](C)O)[C@@H](C)CC)C(=O)N[C@@H](CCCNC(=N)N)C(=O)N1CCC[C@H]1C(=O)N[C@H](C(=O)NCC(=O)N[C@@H](CCCNC(=N)N)C(=O)N[C@@H](Cc1ccccc1)C(N)=O)C(C)C` [PrRP31]: at human NPFF2R, the EC50 was more than 5000 nM.

“SRGK*RPVGRF (K* lipid chain: C18 γE OEG OEG)”: in data set [3], the fragment found result was “GUB08251”.

Consider “SRGK*RPVGRF (K* lipid chain: C18DA γE OEG OEG)”, for which, in data set [3], the fragment found entry is “GUB10195”.

Regarding “SRTHRHSMEIRTPDINPAWYASRGK*RPVGRF (K* lipid chain: C18 γE OEG OEG; C-terminally amidated)”, the fragment found result in data set [4] is reported as “GUB08247: ASRGK*RPVG (C18 γE OEG OEG), major, 30 min; also recorded: GUB08248: SRGK*RPVGRF (C18 γE OEG OEG), major, 30 min; also recorded: GUB08249: SRGK*RPVG (C18 γE OEG OEG), major, 30 min; also recorded: GUB08250: SRGK*RPV (C18 γE OEG OEG), major, 30 min; also recorded: GUB08251: GK*RPVGRF (C18 γE OEG OEG), major, 60 min; also recorded: GUB08252: K*RPVGR (C18 γE OEG OEG), major, 60 min; also recorded: GUB08253: K*RPVG (C18 γE OEG OEG), major, 60 min; also recorded: GUB08254: K*RPV (C18 γE OEG OEG), major, 60 min”.

For the molecule TPDINPAWYASRGIRPVGRF-NH2 [PrRP20], the results for the EC50 (on human NPFF2R; in data set [2]) were more than 5000 nM and 0.2 nM, respectively.
